Measurements: publication PMC8038316 (International Journal of Molecular Sciences, 2021)

What was measured:
[1] = biological target: T1, cytochrome bc1 complex (complex III; decylubiquinol:Cyt c reductase, EC 1.10.2.2) (Pyricularia grisea, UniProt Q85KP9); test: biochemical; conditions: read-out: % inhibition at 50 μM
T1 construct: gene cytb

[2] = biological target: T2, succinate dehydrogenase (SDH; succinate:quinone oxidoreductase, SQR, EC 1.3.5.1; complex II) (Pyricularia oryzae, UniProt A0ABQ8NN34+G4N2P5+G4NB04); test: biochemical
T2 construct: gene SDH2

CO/C=C(/C(=O)OC)c1ccccc1COc1cccc(NC(=O)c2ccccc2NC(C)=O)c1 [11b]
inhibition at 50 µM [1]: 58 ± 18%
inhibition at 400 µM ([2]; read-out: % inhibition at 400 μM): ~23%

CO/C=C(/C(=O)OC)c1ccccc1Oc1cc(Oc2ccccc2C#N)ncn1 [compound 2, azoxystrobin]
inhibition at 50 µM [1]: 61 ± 10%

Cn1cc(C(=O)Nc2ccccc2-c2cc(F)c(F)c(F)c2)c(C(F)F)n1 [compound 6, fluxapyroxad]
inhibition at 40 µM ([2]; read-out: % inhibition at 40 μM): > 90%
